Test results taken from BindingDB's records for doi:10.1016/j.bmcl.2003.11.079 (Millennium Pharmaceuticals, 2004).

Biological target: Trypsin
Test: Inhibitory concentration against trypsin was determined

- IC50: > 10 µM
SMILES: NS(=O)(=O)c1ccccc1-c1ccc(C(=O)Nc2ccccc2C(=O)Nc2ccc(Br)cn2)cc1 [2'-Sulfamoyl-biphenyl-4-carboxylic acid [2-(5-bromo-pyridin-2-ylcarbamoyl)-phenyl]-amide]
